From ChEMBL document CHEMBL1144114, “A new cacospongionolide derivative from the sponge Fasciospongia cavernosa” (J Nat Prod, 1999)
Values after ≈ are worked out from the molar mass of the structure shown.

Tests used:
Bacillus subtilis = assay: Antibacterial activity against Bacillus subtilis DSM 347; assay type: functional
Micrococcus luteus = assay: Antibacterial activity against Micrococcus luteus DSM 348; assay type: functional
Gambusia affinis = assay: Toxicity against Gambusia affinis; assay type: organism-based; conditions: in vivo
Artemia salina = assay: Toxicity against Artemia salina; assay type: organism-based; conditions: in vivo

Compound `C[C@H]1CC=C2[C@H](CCCC2(C)C)[C@@]1(C)CCC1=CC[C@H](C2=CC(=O)O[C@H]2O)OC1` [CACOSPONGIONOLIDE F] has an MIC (Bacillus subtilis) of 0.78 µg/mL (≈ 1.95 µM), an MIC (Micrococcus luteus) of 0.78 µg/mL (≈ 1.95 µM) and an LC50 (Gambusia affinis) of 0.7 ppm. It also gave an LC50 (Artemia salina) of 0.17 ppm.
